Results reported in patent US12187713B2, “Immunomodulators, compositions and methods thereof” (Betta Pharmaceuticals Co., Ltd, priority 2019, dated 2025).

Legend:
[1] = Pharmacokinetic Assay, single oral dose 5 mg/kg (Table 12); type: in vivo; settings: mouse, plasma concentration, C57 female mice, single oral dose 5 mg/kg
Experimental: Adult C57 female mice were received to single-dose of the test compounds with 15% DMSO, 10% Kolliphor^@HS 15 and 75% saline as excipients, the mice (n=3) were giving oral administration (intragastric administration) with the compounds at a dose of 5 mg/kg. Time of blood collection: 30 min, 2 h, 4 h. approximately 0.1 mL of whole blood was collected from retro-orbital venous plexus, and placed into tubes that contained K2-EDTA as an anticoagulant. The whole blood were centrifuged at 4° C. and 4000 rpm for 10 min. The plasma was transferred into centrifuge tubes, and stored at −20° C. until being analyzed. Concentrations of test compounds in the plasma samples were analyzed with liquid chromatography-tandem mass spectrometry (LC-MS/MS). Plasma concentration-time data of individual animals was analyzed using Microsoft Excel 2010.

PD-1/PD-L1 = PD-1/PD-L1 (Homo sapiens (Human), UniProt Q9NZQ7); experiment: PD-1/PD-L1 Binding Assay (Alphascreen)
How it was run: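 PD-1/PD-L1 binding detected by anti-6×His acceptor and streptavidin donor beads after 120 min in the dark at 25 °C. Beforehand, the two proteins were incubated 15 min at 25 °C with inhibitor at 0.015–300 nM (1% DMSO). IC50 comes from a log concentration–response curve.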

PD-1/PD-L1, sequence (Q9NZQ7 19-238): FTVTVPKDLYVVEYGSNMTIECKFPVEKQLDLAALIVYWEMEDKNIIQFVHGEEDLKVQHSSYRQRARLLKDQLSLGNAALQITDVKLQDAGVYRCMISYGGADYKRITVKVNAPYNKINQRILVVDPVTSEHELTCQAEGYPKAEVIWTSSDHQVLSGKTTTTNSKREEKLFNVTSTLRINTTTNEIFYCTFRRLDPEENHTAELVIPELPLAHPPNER

concentration at 0.5 h [1] | concentration at 2 h [1] | concentration at 4 h [1] | IC50 (PD-1/PD-L1; numeric values) | IC50 (PD-1/PD-L1; range symbols) | Compound
61.3 ng/mL | 253 ng/mL | 216 ng/mL | 3.1 nM |  | Cc1c(-c2nc3cc(CN4CCC[C@H]4C(=O)O)c(OC(F)F)cc3o2)cccc1-c1cccc(-c2nc3cc(CN4CCCC4)cc(C#N)c3o2)c1C [Example 127, ((2-(3′-(7-cyano-5-(pyrrolidin-1-ylmethyl)benzo[d]oxazol-2-yl)-2,2′-dimethyl-[1,1′-biphenyl]-3-yl)-6-(difluoromethoxy)benzo[d]oxazol-5-yl)methyl)-L-proline]
108 ng/mL | 301 ng/mL | 470 ng/mL | 2.3 nM |  | Cc1c(-c2nc3cc(CN4CCC[C@H]4C(=O)O)c(OC(F)F)cc3o2)cccc1-c1cccc(-c2nc3cc(CN4CC[C@@H](C)C4)cc(C#N)c3o2)c1C [Example 131, ((2-(3′-(7-cyano-5-(((R)-3-methylpyrrolidin-1-yl)methyl)benzo[d]oxazol-2-yl)-2,2′-dimethyl-[1,1′-biphenyl]-3-yl)-6-(difluoromethoxy)benzo[d]oxazol-5-yl)methyl)-L-proline]
673 ng/mL | 736 ng/mL | 545 ng/mL |  | 0.1 to 5 nM | Cc1c(-c2nc3cc(CN4CCC[C@H]4C(=O)O)c(OC(F)F)cc3o2)cccc1-c1cccc(-c2nc3cc(CN(C)CC#N)cc(C#N)c3o2)c1C [Example 136, ((2-(3′-(7-cyano-5-(((cyanomethyl) (methyl)amino)methyl)benzo [d]oxazol-2-yl)-2,2′-dimethyl-[1,1′-biphenyl]-3-yl)-6-(difluoromethoxy)benzo[d]oxazol-5-yl)methyl)-L-proline]
211 ng/mL | 243 ng/mL | 171 ng/mL |  | 0.1 to 5 nM | Cc1c(-c2nc3cc(CN4CCC[C@H]4C(=O)O)c(OC(F)F)cc3o2)cccc1-c1cccc(-c2nc3cc(CN4CCC(C#N)C4)cc(C#N)c3o2)c1C (stereo partly drawn) [Example 142, ((2-(3′-(7-cyano-5-((3-cyanopyrrolidin-1-yl)methyl)benzo[d]oxazol-2-yl)-2,2′-dimethyl-[1,1′-biphenyl]-3-yl)-6-(difluoromethoxy)benzo[d]oxazol-5-yl)methyl)-L-proline]
243 ng/mL | 386 ng/mL | 222 ng/mL |  | 0.1 to 5 nM | C#CC1(O)CN(Cc2cc(C#N)c3oc(-c4cccc(-c5cccc(-c6nc7cc(CN8CCC[C@H]8C(=O)O)c(OC(F)F)cc7o6)c5C)c4C)nc3c2)C1 [Example 144, ((2-(3′-(7-cyano-5-((3-ethynyl-3-hydroxyazetidin-1-yl)methyl)benzo[d]oxazol-2-yl)-2,2′-dimethyl-[1,1′-biphenyl]-3-yl)-6-(difluoromethoxy)benzo[d]oxazol-5-yl)methyl)-L-proline]
277 ng/mL | 670 ng/mL | 441 ng/mL |  | 5 to 50 nM | Cc1c(-c2nc3cc(CN4CCC[C@H]4C(=O)O)c(OC(F)F)cc3o2)cccc1-c1cccc(-c2nc3cc(CN4CCC(F)C4)cc(C#N)c3o2)c1C (stereo partly drawn) [Example 162, ((2-(3′-(7-cyano-5-((3-fluoropyrrolidin-1-yl)methyl)benzo[d]oxazol-2-yl)-2,2′-dimethyl-[1,1′-biphenyl]-3-yl)-6-(difluoromethoxy)benzo[d]oxazol-5-yl)methyl)-L-proline]
294 ng/mL | 877 ng/mL | 853 ng/mL |  | 5 to 50 nM | Cc1c(-c2nc3cc(CN4CCC[C@H]4C(=O)O)c(OC(F)F)cc3o2)cccc1-c1cccc(-c2nc3cc(CN4CC(F)C(F)C4)cc(C#N)c3o2)c1C (stereo partly drawn) [Example 164, ((2-(3′-(7-cyano-5-((3,4-difluoropyrrolidin-1-yl)methyl)benzo [d]oxazol-2-yl)-2,2′-dimethyl-[1,1′-biphenyl]-3-yl)-6-(difluoromethoxy)benzo[d]oxazol-5-yl)methyl)-L-proline]

Second part, the molecule before the results:

Compound | concentration at 0.5 h [1] | concentration at 2 h [1] | concentration at 4 h [1] | IC50 (PD-1/PD-L1; numeric values) | IC50 (PD-1/PD-L1; range symbols)
Cc1c(-c2nc3cc(CN4CC=CC4)c(OC(F)F)cc3o2)cccc1-c1cccc(-c2nc3cc(CN4CCC[C@H]4C(=O)O)c(OC(F)F)cc3o2)c1C [Example 70, ((6-(difluoromethoxy)-2-(3′-(6-(difluoromethoxy)-5-((2,5-dihydro-1H-pyrrol-1-yl)methyl)benzo[d]oxazol-2-yl)-2,2′-dimethyl-[1,1′-biphenyl]-3-yl)benzo[d]oxazol-5-yl)methyl)-L-proline] | 36.4 ng/mL | 151 ng/mL | 158 ng/mL | 3.3 nM | 
Cc1c(-c2nc3cc(CN4CCC[C@H]4C(=O)O)c(OC(F)F)cc3o2)cccc1-c1cccc(-c2nc3cc(CN4[C@H]5CC[C@@H]4CC5)c(OC(F)F)cc3o2)c1C [Example 72, ((2-(3′-(5-(((1s,4s)-7-azabicyclo[2.2.1]heptan-7-yl)methyl)-6-(difluoromethoxy)benzo[d]oxazol-2-yl)-2,2′-dimethyl-[1,1′-biphenyl]-3-yl)-6-(difluoromethoxy)benzo[d]oxazol-5-yl)methyl)-L-proline] | 42.6 ng/mL | 140 ng/mL | 132 ng/mL | 0.98 nM | 
Cc1c(-c2nc3cc(CN4CC(C#N)C4)c(OC(F)F)cc3o2)cccc1-c1cccc(-c2nc3cc(CN4CCC[C@H]4C(=O)O)c(OC(F)F)cc3o2)c1C [Example 80, ((2-(3′-(5-((3-cyanoazetidin-1-yl)methyl)-6-(difluoromethoxy)benzo[d]oxazol-2-yl)-2,2′-dimethyl-[1,1′-biphenyl]-3-yl)-6-(difluoromethoxy)benzo[d]oxazol-5-yl)methyl)-L-proline] | 247 ng/mL | 299 ng/mL | 167 ng/mL |  | 5 to 50 nM
C=C1CN(Cc2cc3nc(-c4cccc(-c5cccc(-c6nc7cc(CN8CCC[C@H]8C(=O)O)c(OC(F)F)cc7o6)c5C)c4C)oc3cc2OC(F)F)C1 [Example 81, ((6-(difluoromethoxy)-2-(3′-(6-(difluoromethoxy)-5-((3-methyleneazetidin-1-yl)methyl)benzo[d]oxazol-2-yl)-2,2′-dimethyl-[1,1′-biphenyl]-3-yl)benzo[d]oxazol-5-yl)methyl)-L-proline] | 115 ng/mL | 468 ng/mL | 383 ng/mL |  | 5 to 50 nM
Cc1c(-c2nc3cc(CN4CC[C@@H](C(=O)O)C4)c(OC(F)F)cc3o2)cccc1-c1cccc(-c2nc3cc(CN4CC(C)(C)C4)c(OC(F)F)cc3o2)c1C [Example 85, (R)-1-((6-(difluoromethoxy)-2-(3′-(6-(difluoromethoxy)-5-((3,3-dimethylazetidin-1-yl)methyl)benzo[d]oxazol-2-yl)-2,2′-dimethyl-[1,1′-biphenyl]-3-yl)benzo[d]oxazol-5-yl)methyl)pyrrolidine-3-carboxylic acid] | 75.9 ng/mL | 146 ng/mL | 135 ng/mL |  | 0.1 to 5 nM
Cc1c(-c2nc3cc(CN4CCC[C@H]4C(=O)O)c(OC(F)F)cc3o2)cccc1-c1cccc(-c2nc3cc(CN4CC5CC4C5)cc(C(F)(F)F)c3o2)c1C [Example 89] | 21.3 ng/mL | 124 ng/mL | 109 ng/mL |  | 0.1 to 5 nM
Cc1c(-c2nc3cc(CN4CCC[C@H]4C(=O)O)c(OC(F)F)cc3o2)cccc1-c1cccc(-c2nc3cc(CN4CCCC4)c(C(F)(F)F)cc3o2)c1C [Example 101, ((6-(difluoromethoxy)-2-(2,2′-dimethyl-3′-(5-(pyrrolidin-1-ylmethyl)-6-(trifluoromethyl)benzo[d]oxazol-2-yl)-[1,1′-biphenyl]-3-yl)benzo[d]oxazol-5-yl)methyl)-L-proline] | 178 ng/mL | 640 ng/mL | 579 ng/mL | 2.2 nM | 
Cc1c(-c2nc3cc(CN4CCC[C@H]4C(=O)O)c(OC(F)F)cc3o2)cccc1-c1cccc(-c2nc3cc(CN4CCCC4)c(F)c(F)c3o2)c1C [Example 102, ((2-(3′-(6,7-difluoro-5-(pyrrolidin-1-ylmethyl)benzo[d]oxazol-2-yl)-2,2′-dimethyl-[1,1′-biphenyl]-3-yl)-6-(difluoromethoxy)benzo[d]oxazol-5-yl)methyl)-L-proline] | 85.9 ng/mL | 282 ng/mL | 292 ng/mL | 18 nM | 
Cc1c(-c2nc3cc(CN4CCC[C@H]4C(=O)O)c(OC(F)F)cc3o2)cccc1-c1cccc(-c2nc3cc(CN4CC[C@@H](C)C4)cnc3o2)c1C [Example 114, ((6-(difluoromethoxy)-2-(2,2′-dimethyl-3′-(6-(((R)-3-methylpyrrolidin-1-yl)methyl)oxazolo [5,4-b]pyridin-2-yl)-[1,1′-biphenyl]-3-yl)benzo[d]oxazol-5-yl)methyl)-L-proline] | 65.6 ng/mL | 237 ng/mL | 152 ng/mL | 1 nM | 
COc1c(-c2nc3cc(CN4CCCC4)c(F)c(F)c3o2)cccc1-c1cccc(-c2nc3cc(CN4CCC[C@H]4C(=O)O)c(OC(F)F)cc3o2)c1C [Example 117, ((2-(3′-(6,7-difluoro-5-(pyrrolidin-1-ylmethyl)benzo[d]oxazol-2-yl)-2′-methoxy-2-methyl-[1,1′-biphenyl]-3-yl)-6-(difluoromethoxy)benzo[d]oxazol-5-yl)methyl)-L-proline] | 121 ng/mL | 319 ng/mL | 243 ng/mL |  | 0.1 to 5 nM
